# In patent US20090197957A1, “Methods and compositions for the treatment of pain” (Nuon Therapeutics, Inc., priority 2005, published 2009):
# “And” between values parts separate entries of the source, which are not always exact repeats. Equal values may be shown once. “Also recorded” adds a separate entry of the source.
# Assays:
# [1] = tested on: collagen-induced arthritis (CIA); test: Development of collagen-induced arthritis (treatment from day of immunisation); assay type: in vivo, DBA/1 mice; settings: 200 mg/kg/day from the day of immunisation
# Method: Type II collagen was purified from bovine cartilage, as described [Williams 2004, Methods Mol. Med. 98:207-216] and solubilized by stirring overnight at 4° C. in acetic acid (0.1M) or Tris buffer (0.05 M Tris, containing 0.2 M NaCl, pH 7.4). 3,4-DAA was synthesised by Angiogen Pharmaceuticals Pty. Ltd. For in vivo studies 3,4-DAA was dissolved at a maximum concentration of 10 mg/ml in 1% sodium bicarbonate by heating for 1 h at 70° C. Upon cooling, an emulsion was formed. For in vitro studies 3,4-DAA was dissolved in dimethyl sulphoxide (DMSO). 3-Hydroxy-anthranilic acid (3-HAA) was purchased from Sigma (Poole, UK) and dissolved in PBS.
# Male DBA/1 mice (8-12 weeks old) were immunized intradermally at the base of the tail with bovine type II collagen (200 μg) emulsified in complete Freund's adjuvant (CFA; Difco, West Molesley, UK). Arthritis was monitored clinically using the following scoring system: 0=normal, 1=slight swelling and/or erythema, and 2=pronounced oedematous swelling. Each limb was graded, giving a maximum score of 8 per mouse. In addition, paw-swelling was measured using callipers.
# In order to assess its anti-arthritic potential, 3,4-DAA was injected into DBA/1 mice (200 mg/kg/day) from the day of immunisation with type II collagen in CFA. […]
# [2] = tested on: acetic acid-induced writhing; test: Analgesia, acetic acid writhing in mice (Assay #503900, Example 1); assay type: in vivo, mouse; settings: for No. of Writhing Average: group of 5 mice; for % Inhibition: relative to vehicle control; for No. of Writhing Individual: single mice
# Method: Tranilast was evaluated for possible analgesic activity in the mouse acetic acid-induced writhing model. Tranilast at 100, 200 and 400 mg/kg was administered orally (PO) 1 hour before intraperitoneal injection of acetic acid (0.5%, 20 ml/kg).
# Tranilast, provided by Angiogen Pharmaceuticals Pty. Ltd., was dissolved in 1% NaHCO3 (heated to 70° C.) and administered orally at doses of 100, 200 and 400 mg/kg at 60 minutes before acetic acid injection. The dosing volume was 10 ml/kg.
# Male CD-1 (Crl.) derived mice weighing 24±2 g were provided by BioLasco Taiwan (under a Charles River Laboratories Technology licensee). Space allocation for 10 animals was 29×18×13 cm. Mice were housed in APEC^R cages. All animals were maintained in a controlled temperature (22° C.-24° C.) and humidity (60%-70%) environment with 12 hours light dark cycles for at least one week in MDS Pharma Services—Taiwan Laboratory prior to use. Free access to standard lab chow for mice (Lab Diet, Rodent Diet, PMI Nutrition International, USA) and tap water was granted. All aspects of this work including housing, experimentation and disposal of animals were performed in general accordance with the Guide for the Care and Use of Laboratory Animals (National Academy Press, Washington, D.C., 1996).
# Test substance was administered PO (400, 200 and 100 mg/kg) to groups of 5 CD-1 (Crl.) derived male or female mice weighing 22±2 g one hour before injection of acetic acid (0.5%, 20 ml/kg IP). Reduction in the number of writhes by 50 percent or more (≧50%) per group of animals observed during the 5 to 10 minute period after acetic acid administration, relative to the vehicle-treated control group, indicates possible analgesic activity.
# Test substance was administered orally to groups of 5 mice 60 minutes before injection of Acetic Acid (0.5%, 20 ml/kg IP). The number of writhing per group of animals observed during the 5 to 10 minutes period after acetic acid challenge was observed. Reduction in the number of writhings by 50 percent or more (≧50%) relative to the vehicle-treated control group indicates possible analgesic activity.
# [3] = tested on: astrocytes in the spinal cord (GFAP); test: GFAP immunohistochemistry of lumbar spinal cord (astrocytic activation); assay type: in vivo, mice; settings: 10 days following onset of arthritis; 3,4-DAA 200 mg/kg/day, dexamethasone 0.5 mg/kg/2 days
# Method: FIG. 6 is an image depicting that 3,4-DAA inhibits mechanical and thermal allodynia, and inhibits astrocytic activation in arthritic mice. Mechanical (a) and thermal (b) allodynia, and paw swelling (c) and clinical score (d) were assessed in naïve mice on the day of arthritis onset, and up to 10 days following therapy with 200 mg/kg 3,4-DAA, […] dexamethasone, or vehicle. […] Whilst 3,4-DAA therapy reduced astrocytic activation (bottom right panel) dexamethasone had no action on GFAP levels (bottom left panel). Quantification of the number of hyper-plastic astrocytes in the spinal cord 10 days following onset of arthritis was performed (f).
# Upon completion of treatment, animals were sacrificed by CO2 exposure, and the lumbar spinal cord was excised, fixed (10% formalin), and embedded in paraffin. Immunohistochemistry was then performed to detect astrocytes with a rabbit-anti GFAP (glial fibrillary acidic protein) antibody (Dako Cytomation, Glostrup, Denmark). Antibody detection was performed using an ABC peroxidase method (Vector Laboratories, High Wycombe, Bucks., U.K.) (32).
# Astrocytic activation has been proposed to be important for the generation of both inflammatory and neuropathic hypersensitivity [Bao et al., 2001, Neuroreport 12:3905-3908; Watkins et al., 2001, Trends Neurosci. 24:450-455]. Astrocytic activation in the spinal cord in CIA was therefore assessed. […]
# [4] = tested on: IL-10; test: Serum IL-10 in mice with established CIA (ELISA); assay type: in vivo; settings: treated for 10 days, 100, 200 or 400 mg/kg/day, listed as 3,4-DAA
# Method: FIG. 3 is a graphical representation depicting that treatment with 3,4-DAA leads to increased IL-10 levels in vivo. Mice with established CIA were treated with 3,4-DAA or vehicle (n=7) for 10 days (see FIG. 2), then bled. IL-10 in the sera was measured by ELISA.
# [5] = target: Cyclooxygenase COX-1 (Homo sapiens, UniProt P23219); test: biochemical
# Cyclooxygenase COX-1, sequence (P23219 24-599): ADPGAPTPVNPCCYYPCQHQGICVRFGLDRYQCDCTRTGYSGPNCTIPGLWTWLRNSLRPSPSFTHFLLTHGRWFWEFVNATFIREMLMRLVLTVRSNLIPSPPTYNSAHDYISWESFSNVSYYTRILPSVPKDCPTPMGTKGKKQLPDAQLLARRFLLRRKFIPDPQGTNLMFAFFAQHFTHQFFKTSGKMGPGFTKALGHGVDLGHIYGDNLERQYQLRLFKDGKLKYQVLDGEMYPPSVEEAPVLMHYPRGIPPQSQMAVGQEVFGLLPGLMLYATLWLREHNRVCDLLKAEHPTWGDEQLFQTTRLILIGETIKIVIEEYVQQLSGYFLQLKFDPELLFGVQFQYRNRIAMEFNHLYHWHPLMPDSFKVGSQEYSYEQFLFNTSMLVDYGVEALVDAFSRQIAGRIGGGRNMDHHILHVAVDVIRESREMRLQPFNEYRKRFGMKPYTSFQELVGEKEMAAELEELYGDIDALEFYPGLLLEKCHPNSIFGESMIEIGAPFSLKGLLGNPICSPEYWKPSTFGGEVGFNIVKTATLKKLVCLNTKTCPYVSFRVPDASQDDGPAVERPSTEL
# Method: Methods employed in this study have been adapted from the scientific literature to maximize reliability and reproducibility. […] Assays were performed under conditions described in the accompanying “Methods” section of this report. The literature references for each assay are in the “Literature References” section. If either of these sections were not originally requested with the accompanying report, please contact us at the number below for a printout of either of these report sections.
# Biochemical assay results are presented as the percent inhibition of specific binding or activity throughout the report.
# [6] = 100 mg/kg PO, 60 minutes before acetic acid
# [7] = 200 mg/kg PO, 60 minutes before acetic acid
# [8] = 400 mg/kg PO, 60 minutes before acetic acid
smiles,measurement,setting,value
"COc1ccc(/C=C/C(=O)Nc2ccccc2C(=O)O)cc1OC [Tranilast, 2-[[3-(3,4-dimethoxyphenyl)-1-oxo-2-propenyl]amino]benzoic acid]",clinical score of arthritis by day 28,[1],1
same,mice that had developed arthritis by day 28,[1]; 7 mice,14%
same,No. of Writhing Average,[2]; [6],15
same,% Inhibition,[2]; [6],12%
same,No. of Writhing Individual,[2]; [6],19 and 15 and 16 and 17 and 9
same,No. of Writhing Average,[2]; [7],13
same,% Inhibition,[2]; [7],24%
same,No. of Writhing Individual,[2]; [7],10 (2×) and 19 and 9 and 16
same,No. of Writhing Individual,"[2]; 400 mg/kg PO, 60 minutes before acetic acid (0.5%, 20 ml/kg IP), 5 to 10 minute period",3 and 16 and 2 and 10 and 14
same,No. of Writhing Average,[2]; [8],9
same,% Inhibition,[2]; [8],47%
same,inhibition of acetic acid-induced writhing across doses,"[2]; 100, 200 and 400 mg/kg PO",dose-dependent inhibition
same,number of activated astrocytes in the spinal cord (GFAP staining),[3],significantly reduced
same,circulating IL-10 levels (sera),[4],dose-dependent increase; also recorded: increased
same,effect on the activity of the COX-1 enzyme,[5],no effect
same,inhibition at 10 µM,[5],-2%
